In the supplement of paper PMC10307832:

Experiments:
Experiment in all cases: relative viability (nuclei count vs DMSO), 5 days (fraction); higher = more cells survive
CUDC-101 + Phenformin = compound: C#Cc1cccc(Nc2ncnc3cc(OC)c(OCCCCCCC(=O)NO)cc23)c1 [CUDC-101] + N=C(N)NC(=N)NCCc1ccccc1 [Phenformin] (partner 250 µM)
In short: (§1)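 After 5 days of treatment, lung cancer cells in 1536-well plates were fixed and stained in a single step (final 0.05% Triton X-100, 1% formaldehyde, 1 ug/ml Hoechst) and their nuclei counted on 4× images. Treatment had been applied by pin tool the day after seeding as one drug alone or as a fixed anchor-drug dose with five library-drug doses (not always all listed) in √10 steps. Relative viability is the nuclei count of treated wells divided by that of vehicle wells, and values are medians of duplicate plates.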

Vandetanib + Palbociclib = compound: COc1cc2/c(=N/c3ccc(Br)cc3F)nc[nH]c2cc1OCC1CCN(C)CC1 [Vandetanib] + CC(=O)c1c(C)c2cnc(Nc3ccc(N4CCNCC4)cn3)nc2n(C2CCCC2)c1=O [Palbociclib] (partner 0.5 µM)
In short: as §1

[1] = compound: C1=CC=C2C(=C1)N=C(S2)C(C#N)C3=NC(=NC=C3)NCCC4=CN=CC=C4 + CC(=O)Nc1cccc(-n2c(=O)n(C3CC3)c(=O)c3c(Nc4ccc(I)cc4F)n(C)c(=O)c(C)c32)c1 [Trametinib] (partner 0.02 µM)
In short: as §1

NVP-TAE684 + Navitoclax = compound: COc1cc(N2CCC(N3CCN(C)CC3)CC2)ccc1Nc1ncc(Cl)c(Nc2ccccc2S(=O)(=O)C(C)C)n1 [NVP-TAE684] + CC1(C)CCC(c2ccc(Cl)cc2)=C(CN2CCN(c3ccc(C(=O)NS(=O)(=O)c4ccc(N[C@H](CCN5CCOCC5)CSc5ccccc5)c(S(=O)(=O)C(F)(F)F)c4)cc3)CC2)C1 [Navitoclax] (partner 0.5 µM)
In short: as §1

Row | Cell Line | relative viability (CUDC-101 + Phenformin; first compound 0.01 µM) | relative viability (CUDC-101 + Phenformin; first compound 0.03162 µM) | relative viability (CUDC-101 + Phenformin; first compound 0.1 µM) | relative viability (CUDC-101 + Phenformin; first compound 0.3162 µM) | relative viability (CUDC-101 + Phenformin; first compound 1 µM) | relative viability (Vandetanib + Palbociclib; first compound 0.02 µM) | relative viability (Vandetanib + Palbociclib; first compound 0.06325 µM) | relative viability (Vandetanib + Palbociclib; first compound 0.2 µM) | relative viability (Vandetanib + Palbociclib; first compound 0.6325 µM) | relative viability (Vandetanib + Palbociclib; first compound 2 µM) | relative viability ([1]; first compound 0.01581 µM) | relative viability ([1]; first compound 0.05 µM) | relative viability ([1]; first compound 0.1581 µM) | relative viability ([1]; first compound 0.5 µM) | relative viability (NVP-TAE684 + Navitoclax; first compound 0.2 µM) | relative viability (NVP-TAE684 + Navitoclax; first compound 0.6325 µM) | relative viability (NVP-TAE684 + Navitoclax; first compound 2 µM) | relative viability ([1]; first compound 0.005 µM)
1 | NCI-H1915 | 0.395 | 0.361 | 0.364 | 0.349 | 0.269 | 0.51 | 0.519 | 0.499 | 0.484 | 0.522 | 0.318 | 0.304 | 0.329 | 0.305 | 0.795 | 0.806 | 0.752 | –
2 | HCC-366 | 0.604 | 0.555 | 0.704 | 0.667 | 0.64 | 0.423 | 0.41 | 0.453 | 0.394 | 0.351 | 0.378 | 0.314 | 0.404 | 0.307 | 1.18 | 0.999 | 1.02 | 0.281
3 | NCI-H1792 | 0.323 | 0.332 | – | 0.145 | 0.277 | 0.639 | 0.626 | 0.636 | 0.634 | 0.501 | 0.44 | 0.421 | 0.387 | 0.385 | 0.533 | 0.579 | 0.558 | –
4 | SK-LU-1 | 0.497 | 0.441 | 0.576 | 0.593 | 0.493 | 0.387 | 0.314 | 0.363 | 0.376 | 0.354 | 0.437 | 0.413 | 0.532 | 0.474 | 1.12 | 0.88 | 0.206 | 0.461
5 | NCI-H1666 | 0.601 | 0.535 | 0.574 | 0.575 | 0.552 | 0.669 | 0.605 | 0.62 | 0.621 | 0.63 | 0.838 | 0.907 | 0.836 | 0.847 | 0.932 | 0.919 | 0.566 | 0.923
6 | COR-L23 | 0.479 | 0.456 | 0.419 | 0.365 | 0.25 | 0.345 | 0.27 | 0.294 | 0.318 | 0.268 | 0.547 | 0.597 | 0.717 | 0.608 | 1.12 | 0.943 | 0.544 | 0.582
7 | NCI-H460 | 0.528 | 0.501 | 0.554 | 0.526 | 0.486 | 0.147 | 0.157 | 0.189 | 0.148 | 0.166 | 0.137 | 0.131 | 0.175 | 0.141 | – | 1.14 | 0.407 | –
